Data set [1] is described as follows: Plasma concentrations of TAC in the previous in vivo experiments. Also on record: species or system dog. To be noted: in vivo experiments of Example 2; printed as low 10^−5M range. The protocol: The dose of TAC used in the Pretreatment Study was based on calculations previously obtained from the ventricular trabecular experiments in which it was estimated that a plasma concentration of at least 10^−5M would be required to inhibit lysozyme's depressant activity in vivo (49). Based on the molecular weight of TAC (628 MW), the average size of the dog (20 kg), and the estimated distribution space of approximately 50% of total body weight, the dose chosen was 100 mg (Sigma Corp, Canada, Oakville, Ontario) mixed in 200 ml 5% dextrose in water (D5W) that was given intravenously over 0.5 hr. After this initial dose, a dose of 50 mg mixed in 50 ml D5W was continuously infused over each hour for the remainder of the study. The placebo group received an identical amount of D5W over the course of the study.
In the present study, the inventors examined whether the administration of chitobiose after 3.5 hrs of E. coli sepsis at a relatively high dose could reverse the myocardial depression that develops in this model.

In data set [2] the test system is right ventricular trabecular preparation. Description: Adrenergic response to field stimulation or isoproterenol in right ventricular trabecular preparation. The class given is cell-based, dog. To be noted: TAC 10^−4M. The text has this:
Since myocardial depression in sepsis may also be related to a diminished sympathetic response, the possible role of Lzm-S in contributing to this effect was additionally investigated in the right ventricular preparation as previously described (18). Neural adrenergic stimulation was produced in which the pulse width of the electrical stimulus-trains was increased from 2 ms to 20 ms, keeping other stimulus parameters unchanged. The increase in tension seen with sympathetic nerve stimulation was calculated as a percent increase from basal twitch amplitude. In the protocol used, the adrenergic response was measured before and after 10^−10M, 10^−9M, and 10^−8M Lzm-S were added to the organ bath. The results obtained with Lzm-S were compared with those obtained in time control experiments in which equal volumes of KH were added to the preparation at identical intervals. In a second set of experiments, it was observed whether TAC prevented the decrease in the adrenergic response produced by Lzm-S. Either TAC (10^−4M) or KH was added to an organ bath, and the results obtained with TAC treatment were compared with those obtained without the addition of the inhibitor. […]

The test system of the next data set is E. coli sepsis in dogs. Nature of the data set: Chitobiose given after 3.5 h of E. coli sepsis, reversal of myocardial depression. It counts as in vivo, dog. Also on record: HR: unit not given here. Conditions: for HR / Pwp: mean±SD. How it is done:
The E. coli model used in this study was identical to that previously described. Sepsis was induced by the intravenous infusion of 10^10 colony forming units of live E. coli (designation 0111:B4). The bacteria were suspended in normal saline infusion, which was given over 0.5 h. A constant infusion of approximately 5×10^9 colony forming units/h of E. coli was then maintained for the remainder of the experiment.
During the experiment, the animals (16-21) kg were anesthetized with thiopental sodium (20 mg/kg iv) and constantly infused with sufentanil citrate (1 ug/min) and midazolam (5 ug/kg/min). The rates were adjusted to abolish the palpebral reflex. The animals were placed in the supine position; the trachea was intubated with an endotracheal tube; and the lungs were mechanically ventilated at a tidal volume of 20 ml/kg. The ventilator rate was initially set to maintain blood pH at approximately 7.35 and was changed as necessary over the course of the experiment to maintain blood pH as normal as possible. 100% oxygen was inspired to prevent hypoxemia from contributing to the results, and arterial oxygen tension was maintained greater than 500 mmHg over the course of the study in all experiments.
A thermister tipped catheter was advanced from the jugular vein into the pulmonary artery to measure pulmonary arterial pressure, mean pulmonary capillary wedge pressure (Pwp), right atrial pressure, thermodilution cardiac output (CO, Columbus Instruments, Ohio), and to obtain mixed venous oxygen blood samples. A polyethylene catheter was placed into the femoral artery to measure mean blood pressure (MAP) and to withdraw samples of blood for blood gas analysis. All catheters were connected to transducers (Cobe Laboratories) and were referenced relative to the left atrium. All transducers were connected to a chart recorder (Astro-Med, W Warwick, R.I.). Heart rate (HR) was measured from the recorder tracing. Stroke volume (SV) was calculated as CO/heart rate. Stroke work (SW) was calculated from SV×(MAP-Pwp).
After baseline measurements were obtained, bacteria were infused over a six hour period. Chitobiose was infused at 3.5 hours post sepsis after myocardial depression had already developed and was administered over a 0.5 h period. The dose used was 1000 mg (40 mg/kg) in which the drug was mixed in 100 ml D5W. Based on preliminary calculations, this dose could achieve an approximate plasma concentration of 0.5×10^−4 M. 100 mg/hr of chitobiose (5 mg/kg) mixed in 50 ml of D5W was then infused over the remaining course of the experiment. Measurements were obtained after 3.5 hr of sepsis, after treatment, and 1 and 2 hrs post treatment. Stroke work (SW) was the primary measurement of the myocardial contractility used in this study. Pulmonary capillary wedge pressure (Pwp) was used as an index of preload and was maintained constant between conditions at approximately 10 mmHg. Normal saline solution was given as necessary to maintain Pwp relatively constant.
Statistics included one way analysis of variance for repeated measures and Student Newman Keuls' multiple comparison test. The results are reported mean±1SD.

The mark [3] stands for this setting: post sepsis (3.5 h), before chitobiose.

“Also recorded” adds a separate entry of the source.

For the compound `CC(=O)N[C@H]1[C@H](O[C@H]2[C@H](O)[C@@H](NC(C)=O)C(O)O[C@@H]2CO)O[C@H](CO)[C@@H](O[C@@H]2O[C@H](CO)[C@@H](O)[C@H](O)[C@H]2NC(C)=O)[C@@H]1O` (stereo partly drawn) [TAC, N,N′,N″ triacetylglucosamine], the “Plasma concentrations of TAC” value in data set [1] is recorded as ~10^−5 M. Further, the “Effect of pretreatment on the reduction in adrenergic response caused by Lzm-S” value in data set [2] is on record as “prevented the reduction in adrenergic response”.
As to `CC(=O)N[C@H]1[C@H](O[C@H]2[C@H](O)[C@@H](NC(C)=O)C(O)O[C@@H]2CO)O[C@H](CO)[C@@H](O)[C@@H]1O` (stereo partly drawn) [chitobiose, N,N′ diacetylglucosamine], the “Stroke work post treatment vs 3.5 hrs postsepsis” value in the data set with E. coli sepsis in dogs (1 and 2 hrs post treatment) is “significant increase in stroke-work at 1 and 2 hrs post treatment; also recorded: increased after chitobiose treatment”. In addition, the HR was 86±20 in the data set on E. coli sepsis in dogs (1 hr post treatment); 87±12 with E. coli sepsis in dogs (2 hrs post treatment); 91±25 in the data set with E. coli sepsis in dogs (after treatment); 48±9 in the data set on E. coli sepsis in dogs (baseline); 98±24 with E. coli sepsis in dogs (setting [3]). Further, the Pwp in the data set on E. coli sepsis in dogs (1 hr post treatment) is 9.5±1.2 mmHg; with E. coli sepsis in dogs (2 hrs post treatment), 9.9±0.9 mmHg; in the data set with E. coli sepsis in dogs (baseline) it was 10±0.8 mmHg; in the data set with E. coli sepsis in dogs (setting [3]), 9.6±0.8 mmHg; with E. coli sepsis in dogs (post treatment) it was 10.4±0.5. The “Mean arterial pressure after treatment vs 3.5 hrs postsepsis” value in the data set on E. coli sepsis in dogs (chitobiose 1000 mg over 0.5 h at 3.5 h post sepsis, then 100 mg/hr, 4 dogs) is “significant increase in mean arterial pressure after treatment; also recorded: increased after treatment with chitobiose”. The “Myocardial depression already developed in sepsis” value with E. coli sepsis in dogs (chitobiose administered after 3.5 hr of sepsis) is given as “reversal of the myocardial depression observed”. The “Cardiac output vs baseline” value with E. coli sepsis in dogs (dog, in vivo) is “higher at the different conditions as compared with baseline”. Moreover, in the data set on E. coli sepsis in dogs (dog, in vivo), the “Stroke work at the post treatment conditions vs baseline” value is recorded as “not different from that found at baseline”. Besides, the “Stroke-volume among the treatment conditions” value with E. coli sepsis in dogs (dog, in vivo) is “did not reach statistical significance”.
